Measurements from patent US10787607B2, “High efficiency fluorescent compound and method for preparing the same” (SNU R&DB FOUNDATION, priority 2011, dated 2020).

Legend:
[1] = tested on: breast epithelial cell line; test: Cytomorphology Test (microscopic examination of cultured cells); type: cell-based; conditions: cultured about 72 hours, FIG. 12
Procedure: (§1) In the presence of a test compound or a comparative compound, a cell line is cultured for a certain period of time (about 72 hours) and then a cytotoxicity test is conducted. As a control group, a blank test is conducted in the same manner as above without adding any compound including the test compound and the comparative compound.

[2] = tested on: breast epithelial cell; test: Trypan Blue Exclusion Test; type: cell-based; conditions: both test concentrations 1 μM and 10 μM, FIG. 13
Procedure: as §1

[3] = tested on: Caspase-3 and PARP in breast epithelial cell line; test: Western Blotting Test, breast epithelial cell line; type: cell-based; conditions: breast epithelial cell line, 1, 10 and 100 μM, FIG. 14
Procedure: (§2) After a certain period of time, the degree of cell extinction is evaluated by examining the degree of expression of extinction and damage of a specific factor by using Western Blotting Test and the result is shown in FIG. 14.

[4] = tested on: Caspase-3 and PARP in osteosarcoma cell line (U2OS); test: Western Blotting Test, osteosarcoma cell line (U2OS); type: cell-based; conditions: U2OS cells, 10 μM, FIG. 14
Procedure: as §2

[5] = in ethanol; cited from earlier work

## CC(=O)/C=C/c1ccc2cc(O)cc(O)c2c1 [Example 1, (E)-4-(6,8-dihydroxynaphthalen-2-yl)but-3-en-2-one]
[1]
  cytomorphology and number change of the cultured cell vs control group: no significant difference from the control group
[2]
  number of cells alive (trypan blue) vs control group: number of cells similar to that of the control group
[3]
  Western blot peaks from cell extinction and damage (Caspase-3, PARP): no peak at 17 kDa, 19 kDa and 89 kDa positions

## COc1cc([C@@H]2c3cc4c(cc3[C@@H](O[C@@H]3O[C@@H]5CO[C@@H](C)O[C@H]5[C@H](O)[C@H]3O)[C@H]3COC(=O)[C@H]23)OCO4)cc(OC)c1O [Etoposide]
[4]
  Western blot peaks from cell extinction and damage (Caspase-3, PARP): significantly remarkable peak at 17 kDa, 19 kDa and 89 kDa positions

## CCN=c1cc2oc3cc(NCC)c(C)cc3c(-c3ccccc3C(=O)OCC)c-2cc1C.Cl [rhodamin 6G]
[5]
  quantum yield of reference standard: 0.95
